Results on one molecule are retold here after US9164102B2, “Methods of screening for TRPM4b modulators” (The Queen's Medical Center, priority 2002, dated 2015).

Molecules are shown by their SMILES.

The experiment has as its target T1, TRPM4b (Homo sapiens, UniProt Q8TD43).
T1 construct: expressed in transfected cells
The experiment is described as follows: Patch-clamp recordings of TRPM4b currents in HEK-293 cells at buffered intracellular Ca2+. The class given is cell-based. The conditions noted are these: cytosolic/intracellular Ca2+. The protocol:
Wild type and tetracycline-inducible […] Flag-TRPM4b-expressing cells were cultured at 37° C./5% CO2 in DMEM supplemented with 10% FBS and 2 mM glutamine. The medium was supplemented with blasticidin (5 μg/ml; Invitrogen) and zeocin (0.4 mg/ml; Invitrogen). Cells were resuspended in media containing 1 μg/ml tetracycline (Invitrogen) 24 hours before experiments. For patch-clamp experiments, cells were kept in a standard Ringer's solution (in mM): NaCl 145, KCl 2.8, CaCl2 1, MgCl2 2, glucose 10, Hepes.NaOH 10, pH 7.2. In some experiments, this solution was modified such that all but 1 mM of NaCl was replaced by choline-Cl (choline-based solution). In experiments where ATP was used, it was added at 1 mM of the Mg^2+ salt and extracellular Ca^2+ concentration was raised to 2 mM. The standard pipette-filling solutions contained (in mM): K-glutamate 145, NaCl 8, MgCl2 1, Cs-BAPTA 10, pH 7.2 adjusted with KOH. In some experiments, [Ca^2+]i was buffered to […] by 10 mM BAPTA and appropriate concentrations of CaCl2 or left unbuffered. For inside-out single-channel recordings, the patch was excised into a similar solution, except that KCl was used instead of K-glutamate. All reagents were purchased from Sigma and dissolved in the standard intracellular solution. […] Capacitive currents and series resistance were determined and corrected before each voltage ramp. […]
In general terms: The patch-clamp technique gives a direct electrical read-out from membranes.

T1 sequence (Q8TD43 whole entry): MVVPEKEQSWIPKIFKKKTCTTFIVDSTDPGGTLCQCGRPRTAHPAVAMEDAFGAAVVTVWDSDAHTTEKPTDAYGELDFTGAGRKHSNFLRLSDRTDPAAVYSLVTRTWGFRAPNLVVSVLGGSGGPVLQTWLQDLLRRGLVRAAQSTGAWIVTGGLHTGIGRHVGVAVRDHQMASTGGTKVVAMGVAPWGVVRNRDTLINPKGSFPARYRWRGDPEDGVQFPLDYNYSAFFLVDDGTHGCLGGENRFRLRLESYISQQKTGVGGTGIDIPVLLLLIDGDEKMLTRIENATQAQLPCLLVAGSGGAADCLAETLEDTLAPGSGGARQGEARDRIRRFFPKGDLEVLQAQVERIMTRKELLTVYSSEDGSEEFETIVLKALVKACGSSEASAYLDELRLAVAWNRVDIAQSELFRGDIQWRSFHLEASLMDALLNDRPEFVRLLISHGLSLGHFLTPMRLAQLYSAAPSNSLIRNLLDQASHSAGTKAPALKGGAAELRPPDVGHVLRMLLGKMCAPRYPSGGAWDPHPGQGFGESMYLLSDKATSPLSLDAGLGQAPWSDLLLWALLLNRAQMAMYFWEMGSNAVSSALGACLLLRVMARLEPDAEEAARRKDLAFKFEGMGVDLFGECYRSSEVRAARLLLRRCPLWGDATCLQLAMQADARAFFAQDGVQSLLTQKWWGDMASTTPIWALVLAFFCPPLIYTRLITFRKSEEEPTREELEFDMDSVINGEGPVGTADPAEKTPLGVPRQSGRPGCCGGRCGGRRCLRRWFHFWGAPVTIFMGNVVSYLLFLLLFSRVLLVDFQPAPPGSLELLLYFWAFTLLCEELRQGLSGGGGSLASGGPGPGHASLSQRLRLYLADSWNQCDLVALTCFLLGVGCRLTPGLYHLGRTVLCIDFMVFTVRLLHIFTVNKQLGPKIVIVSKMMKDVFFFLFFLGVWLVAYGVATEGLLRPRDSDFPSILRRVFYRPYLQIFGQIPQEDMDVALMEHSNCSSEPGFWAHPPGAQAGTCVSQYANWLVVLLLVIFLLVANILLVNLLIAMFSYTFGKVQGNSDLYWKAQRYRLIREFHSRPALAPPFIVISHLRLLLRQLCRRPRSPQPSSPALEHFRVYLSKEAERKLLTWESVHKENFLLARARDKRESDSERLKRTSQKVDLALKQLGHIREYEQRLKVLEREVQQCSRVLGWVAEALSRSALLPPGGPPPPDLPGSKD

Regarding `[Ca+2]` [Ca^2+], the “Ca^2+ concentration at which direct gating of the TRPM4b channel appears to begin” value is reported as roughly 300 nM.
